Earlier results in patent US20100111874A1, “METHOD OF CANCER DETECTION AND TREATMENT” (University of Medicine and Dentistry of New Jresey, priority 2007, published 2010).

Test system: human colon cancer xenografts
Conditions: combined with interferons; nude mice; cited from earlier work

CCc1c2c(nc3ccc(OC(=O)N4CCC(N5CCCCC5)CC4)cc13)-c1cc3c(c(=O)n1C2)COC(=O)[C@]3(O)CC [CPT-11]
anticancer activity in combination with interferons: synergistic
